Assay results from paper PMC6522510 (Nature Communications, 2019).
Structures can show the parent of a compound that is named as a salt. Where two headings read alike, the source gives them in different places.

Legend:
Parameters in all cases: species or system AML cell lines (8); Primary HTS, single concentration about 10 uM, Cell Titer Glo viability; log10 luminescence, per cent inhibition relative to cycloheximide control
Conditions in all cases: 72 h, relative to cycloheximide control, log10 luminescence, inhibitor
[1] = test system: MV4-11
[2] = test system: U937
[3] = test system: CMS
[4] = test system: CHRF288-11
[5] = test system: M07e
[6] = test system: CMK
[7] = test system: MOLM-13
[8] = test system: ML-2

Row | Structure (SMILES) | MV4-11 %inh ([1]; MV4-11 %inh, 10 µM) | U937 %inh ([2]; U937 %inh, 10 µM) | CMS %inh ([3]; CMS %inh, 10 µM) | CHRF288-11 %inh ([4]; CHRF288-11 %inh, 10 µM) | M07e %inh ([5]; M07e %inh, 10 µM) | CMK %inh ([6]; CMK %inh, 10 µM) | MOLM-13 %inh ([7]; MOLM-13 %inh, 10 µM) | ML-2 %inh ([8]; ML-2 %inh, 10 µM) | MV4-11 %inh [1] | U937 %inh [2] | CMS %inh [3] | CHRF288-11 %inh [4] | M07e %inh [5] | CMK %inh [6] | MOLM-13 %inh [7] | ML-2 %inh [8]
1 | O=c1oc2ccccc2c(O)c1Cc1c(O)c2ccccc2oc1=O [SJ000285189-5, DICUMAROL] | -2.098% | -0.6% | -1.99% | 8.973% | -2.456% | -3.554% | -3.706% | -1.314% | – | – | – | – | – | – | – | –
2 | O=c1oc2ccccc2c(O)c1Cc1c(O)c2ccccc2oc1=O [SJ000285189-6, DICUMAROL] | 0.4793% | -0.6405% | -1.661% | 3.41% | 0.4208% | -0.9245% | 0.9251% | -0.8259% | – | – | – | – | – | – | – | –
3 | C[C@H]1O[C@@H](O[C@H]2[C@@H](O)C[C@H](O[C@H]3[C@@H](O)C[C@H](O[C@H]4CC[C@@]5(C)[C@H](CC[C@@H]6[C@@H]5CC[C@]5(C)[C@@H](C7=CC(=O)OC7)CC[C@]65O)C4)O[C@@H]3C)O[C@@H]2C)C[C@H](O)[C@@H]1O [SJ000285233-4, DIGITOXIN] | 82.27% | 77.98% | 96.1% | 102.9% | 114.3% | 102% | 81.14% | 57.88% | – | – | – | – | – | – | – | –
4 | C[C@H]1O[C@@H](O[C@H]2[C@@H](O)C[C@H](O[C@H]3[C@@H](O)C[C@H](O[C@H]4CC[C@@]5(C)[C@H](CC[C@@H]6[C@@H]5CC[C@]5(C)[C@@H](C7=CC(=O)OC7)CC[C@]65O)C4)O[C@@H]3C)O[C@@H]2C)C[C@H](O)[C@@H]1O [SJ000285233-5, DIGITOXIN] | 76.58% | 78.87% | 97.86% | 112.4% | 112.2% | 108.7% | 87.24% | 58.4% | – | – | – | – | – | – | – | –
5 | Cn1cnc([N+](=O)[O-])c1Sc1ncnc2[nH]cnc12 [SJ000285241-8, AZATHIOPRINE] | – | – | – | – | – | – | – | – | 14.19% | -0.6587% | 0.5483% | 14.99% | 7.374% | 49.74% | 36.41% | 14.66%
6 | Cc1ccc2cc3c(ccc4ccccc43)c3c2c1CC3 [SJ000285253-3, 3-METHYLCHOLANTHRENE] | – | – | – | – | – | – | – | – | 4.129% | 0.01725% | 3.804% | 5.022% | 0.9432% | 1.143% | 2.389% | 4.978%
7 | Oc1c(Cl)cc(Cl)c(Cl)c1Cc1c(O)c(Cl)cc(Cl)c1Cl [SJ000285273-4, HEXACHLOROPHENE] | – | – | – | – | – | – | – | – | 7.526% | 24.03% | 32.47% | 23.59% | 10.84% | 117.7% | 75.15% | 15.89%
8 | O=C(O)P(=O)(O)O [SJ000285291-3, FOSCARNET SODIUM] | – | – | – | – | – | – | – | – | 0.7745% | -2.189% | 0.8709% | -2.096% | -4.14% | 3.052% | 3.283% | -0.9621%
9 | CN[C@@H]1[C@H](O[C@H]2[C@H](O[C@H]3[C@H](O)[C@@H](O)[C@H](N=C(N)N)[C@@H](O)[C@@H]3N=C(N)N)O[C@@H](C)[C@]2(O)C=O)O[C@@H](CO)[C@H](O)[C@H]1O [SJ000285297-4, STREPTOMYCIN SULFATE] | -1.642% | -1.404% | -1.268% | 6.76% | -4.718% | 3.295% | 1.953% | -3.476% | – | – | – | – | – | – | – | –
